Data published in US20240228469A1, “PCSK9 INHIBITORS AND METHODS OF USE THEREOF” (AstraZeneca AB, priority 2022, published 2024).

Assays:
[1] = target: T1, potassium ion channel hERG (Homo sapiens, UniProt Q12809); test: Assay 5 hERG assay (patch clamp, CHO cells over-expressing hERG); type: cell-based; settings: SyncroPatch 384PE, room temperature, geometric mean, read-out: Assay 5 (hERG Hu CHO if EPh CR-Syncro) GMean IC50
T1 construct: expressed in transfected cells; host or cells: Chinese hamster ovary K1 (CHO)
Procedure, shortened: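 hERG currents recorded by automated patch clamp at room temperature in CHO-K1 cells, 6-point cumulative concentrations. SyncroPatch runs used KF-based internal (pH 7.2) and NMDG-containing external solution (pH 7.4), 0.33% DMSO; QPatchII runs used 2% or 0.4% DMSO. Only wells meeting seal-resistance and current-size criteria kept.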

[2] = target: GSK3β (Glycogen synthase kinase-3 beta) (Homo sapiens, UniProt P49841); test: Assay 6 GSK3β assay (ThermoFisher Z-Lyte FRET); type: biochemical; settings: ATP Conc: 10 μM, geometric mean; read-out: Assay 6 (GSK3β FRET-Z-Lyte Cr) GMean IC50
Procedure, shortened: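 Z-Lyte FRET: 0.22-0.92 ng kinase with 2 μM Ser/Thr 09 peptide in HEPES pH 7.5, MgCl2, EGTA, 60 min at room temperature, then 60 min development. Compounds in 1% DMSO, 10-point 3-fold series from 10 μM; sigmoidal dose-response fit.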

T1 sequence (Q12809 whole entry): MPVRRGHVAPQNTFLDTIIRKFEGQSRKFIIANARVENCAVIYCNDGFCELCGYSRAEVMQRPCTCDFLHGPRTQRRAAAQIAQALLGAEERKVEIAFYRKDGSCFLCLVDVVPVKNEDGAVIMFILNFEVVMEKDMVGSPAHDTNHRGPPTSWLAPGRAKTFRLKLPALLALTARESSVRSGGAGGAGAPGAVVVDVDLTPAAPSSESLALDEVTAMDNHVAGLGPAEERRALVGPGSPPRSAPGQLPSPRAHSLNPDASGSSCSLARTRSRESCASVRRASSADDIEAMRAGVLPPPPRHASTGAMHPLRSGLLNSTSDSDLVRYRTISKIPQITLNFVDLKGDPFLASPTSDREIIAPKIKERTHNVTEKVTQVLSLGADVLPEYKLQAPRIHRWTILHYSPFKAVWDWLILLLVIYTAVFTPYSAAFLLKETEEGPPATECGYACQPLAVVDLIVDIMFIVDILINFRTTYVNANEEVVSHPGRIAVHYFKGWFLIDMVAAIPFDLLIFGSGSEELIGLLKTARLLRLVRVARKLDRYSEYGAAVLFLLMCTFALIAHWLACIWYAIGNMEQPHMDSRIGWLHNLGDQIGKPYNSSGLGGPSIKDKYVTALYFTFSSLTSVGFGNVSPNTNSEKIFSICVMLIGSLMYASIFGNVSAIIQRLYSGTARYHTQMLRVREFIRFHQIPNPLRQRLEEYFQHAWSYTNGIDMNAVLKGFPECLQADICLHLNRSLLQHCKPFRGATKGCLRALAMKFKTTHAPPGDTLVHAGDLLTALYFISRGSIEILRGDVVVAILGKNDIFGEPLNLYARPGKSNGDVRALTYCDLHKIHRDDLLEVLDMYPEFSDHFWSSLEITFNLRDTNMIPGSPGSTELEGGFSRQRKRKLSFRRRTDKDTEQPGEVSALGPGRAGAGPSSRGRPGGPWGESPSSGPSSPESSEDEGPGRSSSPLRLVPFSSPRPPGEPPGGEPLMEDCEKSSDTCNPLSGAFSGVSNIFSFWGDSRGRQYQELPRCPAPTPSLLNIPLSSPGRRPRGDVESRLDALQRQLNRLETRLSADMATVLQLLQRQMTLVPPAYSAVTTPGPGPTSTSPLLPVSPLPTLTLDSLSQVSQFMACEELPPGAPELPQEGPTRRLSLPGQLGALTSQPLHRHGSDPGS
GSK3β (Glycogen synthase kinase-3 beta), sequence (P49841 whole entry): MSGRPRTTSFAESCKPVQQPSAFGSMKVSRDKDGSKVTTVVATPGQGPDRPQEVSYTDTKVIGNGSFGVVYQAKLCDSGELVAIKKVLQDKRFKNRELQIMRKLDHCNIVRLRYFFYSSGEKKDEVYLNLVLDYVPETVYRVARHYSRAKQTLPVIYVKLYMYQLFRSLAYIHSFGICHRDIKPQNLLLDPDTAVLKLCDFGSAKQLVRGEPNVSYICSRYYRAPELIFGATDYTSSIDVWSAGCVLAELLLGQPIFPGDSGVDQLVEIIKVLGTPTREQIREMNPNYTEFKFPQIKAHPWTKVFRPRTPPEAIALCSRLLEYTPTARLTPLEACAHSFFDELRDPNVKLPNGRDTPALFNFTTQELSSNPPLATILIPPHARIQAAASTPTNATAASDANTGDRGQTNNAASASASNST

SMILES | IC50 [1] | IC50 [2]
O=c1ccc(Cl)cn1-c1ccc(N[C@H]2CC[C@H](Nc3ncc(C4CC4)nn3)C2)nc1 [Example 112, 5-Chloro-6′-(((1S,3S)-3-((6-cyclopropyl-1,2,4-triazin-3-yl)amino)cyclopentyl)amino)-2H-[1,3′-bipyridin]-2-one] | > 40.1 µM | 6.4 µM
Cc1cnc(N[C@H]2CC[C@H](Nc3ccc(-n4c(=O)n(C)c5ccc(C#N)cc54)cn3)C2)nn1 [Example 210, 1-Methyl-3-(6-(((1S,3S)-3-((6-methyl-1,2,4-triazin-3-yl)amino)cyclopentyl)amino)pyridin-3-yl)-2-oxo-2,3-dihydro-1H-benzo[d]imidazole-5-carbonitrile] | > 40.1 µM | > 10 µM
N#Cc1ccc(=O)n(-c2ccc(N[C@H]3CC[C@H](Nc4ncc(C5CC5)nn4)C3)nc2)c1 [Example 56, 6′-(((1S,3S)-3-((6-Cyclopropyl-1,2,4-triazin-3-yl)amino)cyclopentyl)amino)-2-oxo-2H-[1,3′-bipyridine]-5-carbonitrile] | 34.9 µM | > 10 µM
O=c1ccccn1-c1ccc(N[C@H]2CC[C@H](Nc3ncc(C4CC4)nn3)C2)nc1 [Example 50, 6′-(((1S,3S)-3-((6-Cyclopropyl-1,2,4-triazin-3-yl)amino)cyclopentyl)amino)-2H-[1,3′-bipyridin]-2-one] | > 40 µM | > 10 µM
Cc1cnc(N[C@H]2CC[C@H](Nc3ccc(-n4cccc(C)c4=O)cn3)C2)nn1 [Example 131, 3-Methyl-6′-(((1S,3S)-3-((6-methyl-1,2,4-triazin-3-yl)amino)cyclopentyl)amino)-2H-[1,3′-bipyridin]-2-one] | > 72.6 µM | > 10 µM
O=c1ccncn1-c1ccc(N[C@H]2CC[C@H](Nc3ncc(C4CC4)nn3)C2)nc1 [Example 114, 3-(6-(((1S,3S)-3-((6-Cyclopropyl-1,2,4-triazin-3-yl)amino)cyclopentyl)amino)pyridin-3-yl)pyrimidin-4(3H)-one] | 18.6 µM | > 10 µM
Cn1c(=O)n(-c2ccc(N[C@H]3CC[C@H](Nc4ncc(C5CC5)nn4)C3)nc2)c2cc(C#N)ccc21 [Example 116, 3-(6-(((1S,3S)-3-((6-Cyclopropyl-1,2,4-triazin-3-yl)amino)cyclopentyl)amino)pyridin-3-yl)-1-methyl-2-oxo-2,3-dihydro-1H-benzo[d]imidazole-5-carbonitrile] | 12 µM | > 10 µM
